Measurements from US20250281625A1, “FOLIC ACID-CONJUGATED AMINOCLAY BASED NANOCOMPOSITES FOR THE SITE-SPECIFIC DRUG DELIVERY, METHOD FOR THEIR PREPARATION AND THEIR USE” (Dongguk University Industry-Academic Cooperation Foundation, priority 2021, published 2025).

Experiments:
[1] = in water; cited from earlier work
[2] = test system: colitis-induced mice; test: in vivo efficacy in dextran sodium sulfate colitis-induced mice; parameters: species or system C57BL/6 mice; conditions: oral, 10 mg/kg once daily for 8 days, DSS colitis mice, day 9
Protocol: (§1) Before inducing colitis, 8-week-old C57BL/6 mice were raised under standard conditions at 21° C. to 22° C. in a 12-hour light/dark cycle for 7 days. On the day of the experiment (Day 0), mice were randomly divided into five groups: a healthy control group and four experimental groups [dextran sodium sulfate administration group (DSS), dextran sodium sulfate and phosphate-buffer saline (PBS) administration group (DSS+PBS), dextran sodium sulfate and infliximab administration group (DSS+IFX), and dextran sodium sulfate and EFA-AC-IFX administration group (DSS+EFA-AC-IFX)]. Colitis was induced in mice by adding 2.0% (w/v) dextran sodium sulfate to drinking water.
(§2) To investigate the therapeutic effect of nanoparticles, colitis-induced mice in each experimental group were orally administered with 200 μL of PBS, infliximab (10 mg/kg), or EFA-AC-IFX (10 mg/kg) once daily for 8 days. On Day 8, drinking water containing dextran sodium sulfate was replaced with pure water. […]
To evaluate the therapeutic efficacy of EFA-AC-IFX for colitis, mouse colon tissues were histologically analyzed using hematoxylin-eosin (H&E) staining. […] The severity of colitis in each colonic section was assessed using a blinded approach by measuring mucosal features, such as epithelial damage, mucosal edema, and inflammatory cell infiltration of the mucosa.

[3] = test system: TNF-α; test: TNF-α concentration in colonic samples of colitis-induced mice (ELISA); type: in vivo, C57BL/6 mice; conditions: oral, 10 mg/kg once daily for 8 days, DSS colitis mice, compared to control group
Protocol: as §1
as §2, with “water. During the experiment, changes in body weight, stool consistency, and the presence of blood in the stool or anus were checked daily.” for “water.”
The level of TNF-α, one of the important inflammatory mediators involved in the pathogenesis of ulcerative colitis, is increased by inducing colitis in mice. Therefore, the concentration of TNF-α in colonic samples obtained from each experimental group was quantified using a TNF-α ELISA kit.

Compound	water solubility [1] [mg/g]	colon length [2] [cm]	concentration of TNF-α in colonic samples [3]
Nc1nc2ncc(CNc3ccc(C(=O)N[C@@H](CCC(=O)O)C(=O)O)cc3)nc2c(=O)[nH]1 [folic acid]	0.0016	–	–
Infliximab	–	6.2±0.25	significantly increased compared to the control group
